Test results as given in US6472395B1, “Agent for use in transplantation” (Leif J. I. Lundblad, priority 1999, dated 2002).
“Also recorded” adds a separate entry of the source.

Assays:
rat livers [1] = assay: TPA toxicity in rat liver perfusion, lactate and bile flow
Description: (§1) A series of experiments were carried out with rat livers in a heart/lung machine (FIGS. 4 and 5).
(§2) Lactate was added to a control liver perfusion and the bile flow and the lactate level were measured as a function of time. Bile flow is the clinical parameter for liver function, the higher bile flow the better liver function. The results from controls are shown in the upper diagrams of FIGS. 4 and 5. A normal liver down-regulates the lactate very rapidly to in vivo levels (3-5 mM). The normal bile flow in controls is represented by the dotted line.
In the next experiment (FIG. 5) a very toxic compound, triphorbolester (TPA) was added to the perfusion fluid. TPA is an inducer of inflammation and a very potent tumour promoter.
Then the same experiment was repeated under the same conditions except that 2 mg B220 also was added to the perfusion. From said results it can be seen that when B220 is present in the system the toxic effects of TPA were prevented and the values of lactate and bile flow were restored (and even better as compared to the controls in FIG. 5, upper diagram). […] The mode of action resides in a blocking of hyperplasia/inflammation.

rat liver [2] = assay: Donor pretreatment, liver stored 24 h at +4° C. then isolated perfusion, bile flow and lactate; assay type: in vivo; settings: pretreatment of B220 to the donor
Description: The same experiment was repeated but instead the temperature applied during transport of human livers(+4° C.) was used. The livers were stored for 24 h before installation in the perfusion system. This should be compared to 12 h which is the maximum for human liver transplantation. […] The experiment was identical to what is shown in FIG. 6 except for time and temperature used.

rat livers [3] = assay: Ischemia/reperfusion in rat liver perfusion system, removal of lactate, comparison with known protective compounds; settings: 5 mg added to the perfusate before ischemia; FIG. 3
Description: A third experiment was carried out, wherein rat livers were taken out and were subjected to perfusion in a heart/lung machine. The perfusion solution is blood with an implanted liver. When the system has reached equilibrium the perfusion flow is shut off and 10 to 20 minutes later the perfusion flow is turned on again, which is called reperfusion (ischemia). A known toxic effect of reperfusion (ischemia/infarction)(tissue damage due to oxidative stress) is the reduced capacity to remove lactate from the perfusate.

[4] = Toxicity in vivo (general statement)
rats = assay: In vivo test of rats with 2,7-dNF, livers analysed for 8-OH-dG; design: species or system rat; settings: oral in corn oil, B220 at −48 h, −24 h and +6 h relative to 2,7-dNF dose; FIG. 2
Description: In another experiment rats were tested in vivo and the livers analyzed for 8-OH-dG. In this experiment there were three test groups. One control group, one group to which 2,7-dinitrofluorene (2,7-dNF), which is a well-known carcinogen found in diesel exhaust and inducer of 8-OH-dG, was orally administered and one group to which both 2,7-dNF and a compound to be used as an agent according to the present invention (B220) were administered. B220 was administered at three time points in relation to the 2,7-dNF dose, viz. −48 h, −24 h and +6 h. All doses were administered orally with the substance in corn oil. Control only received carrier. Oxidation of DNA (oxidation of guanine, 8-OH-dG) was measured in the liver. 8-OH-dG is a promutagenic event correlated to several different types of diseases, for instance cancer, diabetes and infectious diseases.
The results of the experiment can be seen from the enclosed FIG. 2.

rat liver [5] = assay: Donor pretreatment, liver stored 2 h at +30° C. then isolated perfusion, total bile flow; assay type: in vivo; settings: single dose B220 i.p. to donor 24 h prior to surgery; liver 2 h at +30° C.; FIG. 6
Description: In a further experiment rat liver was tested in isolated perfusion where B220 was administered to the donor. The donors were administered a single dose of B220 24 h before the livers were surgically removed and kept at +30° C. for 2 h before set into perfusion (group 3). (There was a “short” storage (2 h) of rat liver at a high temperature (+30° C.) in order to simulate transplantation). The second group was not administered B220 and the first group was controls directly set into perfusion. […] “Transport” and reperfusion gives a massive oxidative stress which leads to tissue damage.
In FIG. 6 the total bile flow was an indicator of tissue damage induced by transplantation. The controls were directly “transplanted” to the perfusion system while the second group of livers was kept for 2 h at 30° C. before “transplantation”. The third group represents the 2 h at 30° C. treatment but with addition of B220 to the donors.

[6] = Long time in vivo experiments on tumour promoter effect of TPA
rat livers [7] = assay: Reperfusion (10 min shut-off) of rat liver in heart/lung machine, lactate and bile flow over time; settings: 2 mg B220 in the system, FIG. 4 lower diagram
Description: as §1, §2
In the next experiment a heart/lung machine was shut off for 10 minutes and then it was started again to induce oxidative stress (reperfusion). The amount of lactate, which is a measurement of tissue damage, was determined as a function of time and the bile flow as a function of time was also determined as an indicator of toxic effect. The results are shown in FIG. 4, middle diagram, indicating a high level of lactate (solid curve) and a reduced bile flow (dotted curve) after reperfusion. Both these effects are markers for tissue damage.
In the next experiment the same reperfusion experiment was carried out with B220 present in the system in an amount of 2 mg.

[8] = TPA alone added to the perfusion fluid, FIG. 5 middle diagram
[9] = 2 mg B220 added together with TPA, FIG. 5 lower diagram

Description for liver from rat: In order to investigate the agents to be used in transplantation according to the present invention a liver from rat was tested in a perfusion solution in a heart/lung machine. In order to measure organ damage the amount of 8-OH-dG in the liver was analysed. As an inducer of 8-OH-dG dimethylsulphoxide (DMSO) was added to a perfusion solution.

Q: For CCCCCCCCCCCCCC(=O)O[C@@H]1[C@@H](C)[C@@]2(O)[C@@H](C=C(CO)C[C@]3(O)C(=O)C(C)=C[C@@H]23)[C@@H]2C(C)(C)[C@]12OC(C)=O [TPA, triphorbolester, reference compound], which “capacity to produce bile” value (rat livers [1]; [8]) is on record?
A: The value was “very restricted capacity to produce bile”.

Q: And the “capacity to reduce lactate” value (rat livers [1]; [8])?
A: Its value is “very limited capacity to reduce lactate”.

Q: Which “8-OH-dG in the liver” value (liver from rat) does the source give for C[S+](C)[O-] [DMSO, dimethylsulphoxide, reference compound] here?
A: Its value is “significant increase of 8-OH-dG”.

Q: Which results are given for Cc1cc2nc3c4ccccc4n(CCN(C)C)c3nc2cc1C [B220]?
A: bile flow with TPA in perfusion (rat livers [1]; [9]): restored; lactate with TPA in perfusion (rat livers [1]; [9]): restored; bile flow (rat liver [2]; FIG. 7): the bile flow was restored; lactate levels (rat liver [2]; FIG. 8): same protective effect on lactate levels; reduction of lactate in perfusate after ischemia (protection) (rat livers [3]): significant reduction of lactate; also recorded: statistically significant protection; toxicity [4]: practically non-toxic; 8-OH-dG in the liver (oxidation of DNA) (rats): protects against 2,7-dNF-induced formation of 8-OH-dG; also recorded: reduces 8-OH-dG to below the control values; total bile flow during the perfusion (rat liver [5]): the toxic effects are eliminated; also recorded: completely restored the bile flow value to that of the control samples; tumour promoter effect of TPA [6]: can stop the very potent tumour promoter effect of TPA; bile flow as a function of time after reperfusion (rat livers [7]): rapidly accommodate to normal values; also recorded: better than in the controls; lactate amount as a function of time after reperfusion (rat livers [7]): rapidly accommodate to normal values; also recorded: better than in the controls

Q: Which “reduction of lactate in perfusate after ischemia (protection)” value (rat livers [3]) does the source give for CC(=O)Oc1ccccc1C(=O)O [ASA, acetyl salicylic acid] here?
A: The value was “did not give any protective effects”.
